According to PubChem BioAssay AID1963431 (Molecular Pharmacology Branch, DTP, NCI, 2024):

Tested on: Rh18 complex spheroid viability, percent test/control
Assay: Anticancer human tumor Rh18 cell line growth inhibition [Asc];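 note: spheroids exposed to compound for 7 days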;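 for viability, T/C: 100% = DMSO vehicle control wells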
Details: for IC50: curve of first compound; for viability, T/C: stronger effect = lower value
In short: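 Spheroid model: tumor line + HUVEC + hMSC. Single agents and combinations; top conc. at/near clinical Cmax (10 microM if undetermined), half-log dilutions. DMSO stocks at 800-fold test concentration.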

[1] = second compound 0.1 µM, first compound 0.0316 µM
[2] = second compound 0.1 µM, first compound 0.1 µM
[3] = second compound 0.1 µM, first compound 0.316 µM
[4] = second compound 0.1 µM, first compound 1 µM
[5] = second compound 0.1 µM, first compound 3.16 µM
[6] = second compound 0.1 µM, first compound 10 µM
[7] = second compound 0.316 µM, first compound 0.0316 µM
[8] = second compound 0.316 µM, first compound 0.1 µM
[9] = second compound 0.316 µM, first compound 0.316 µM
[10] = second compound 0.316 µM, first compound 1 µM
[11] = second compound 0.316 µM, first compound 3.16 µM
[12] = second compound 0.316 µM, first compound 10 µM
[13] = second compound 1 µM, first compound 0.0316 µM
[14] = second compound 1 µM, first compound 0.1 µM
[15] = second compound 1 µM, first compound 0.316 µM
[16] = second compound 1 µM, first compound 1 µM
[17] = second compound 1 µM, first compound 3.16 µM
[18] = second compound 1 µM, first compound 10 µM
[19] = second compound 3.16 µM, first compound 0.0316 µM
[20] = second compound 3.16 µM, first compound 0.1 µM
[21] = second compound 10 µM, first compound 0.0316 µM
[22] = second compound 10 µM, first compound 0.1 µM

**Q.** Which results are given for C=C(F)C(=O)N1CCN(c2nc(OCC3CCCN3C)nc3c2CCN(c2cccc4cccc(Cl)c24)C3)CC1CC#N (stereo not given) + CNC(C)C(=O)NC1CN(S(=O)(=O)c2cccc(S(=O)(=O)N3CCC4CCC(C(=O)NC(c5ccccc5)c5ccccc5)N4C(=O)C(NC(=O)C(C)NC)C3)c2)CCC2CCC(C(=O)NC(c3ccccc3)c3ccccc3)N2C1=O?
**A.** IC50 (second compound 0.01 µM): 484 nM; IC50 (second compound 0.0316 µM): 152 nM; IC50 (second compound 0.1 µM): < 31.6 nM; IC50 (second compound 0.316 µM): < 31.6 nM; IC50 (second compound 1 µM): < 31.6 nM; viability, T/C (second compound 0.01 µM, first compound 0.0316 µM): 71%; viability, T/C (second compound 0.01 µM, first compound 0.1 µM): 70.1%; viability, T/C (second compound 0.01 µM, first compound 0.316 µM): 53.5%; viability, T/C (second compound 0.01 µM, first compound 1 µM): 40.7%; viability, T/C (second compound 0.01 µM, first compound 3.16 µM): 16.2%; viability, T/C (second compound 0.01 µM, first compound 10 µM): 0.19%; viability, T/C (second compound 0.0316 µM, first compound 0.0316 µM): 46.5%; viability, T/C (second compound 0.0316 µM, first compound 0.1 µM): 62.6%; viability, T/C (second compound 0.0316 µM, first compound 0.316 µM): 39.8%; viability, T/C (second compound 0.0316 µM, first compound 1 µM): 39.7%; viability, T/C (second compound 0.0316 µM, first compound 3.16 µM): 14.8%; viability, T/C (second compound 0.0316 µM, first compound 10 µM): 0.18%; viability, T/C [1]: 41.6%; viability, T/C [2]: 42.2%; viability, T/C [3]: 43.8%; viability, T/C [4]: 34.4%; viability, T/C [5]: 10.1%; viability, T/C [6]: 0.19%; viability, T/C [7]: 49.4%; viability, T/C [8]: 49%; viability, T/C [9]: 47.7%; viability, T/C [10]: 39.2%; viability, T/C [11]: 10.8%; viability, T/C [12]: 0.19%; viability, T/C [13]: 42.3%; viability, T/C [14]: 45.3%; viability, T/C [15]: 37.7%; viability, T/C [16]: 31.3%; viability, T/C [17]: 6.38%; viability, T/C [18]: 0.2%

**Q.** How did the IC50 (second compound 0.01 µM) turn out when CCN1C(C(=O)NC23CCC(C(=O)O)(CC2)CC3)C(c2cccc(Cl)c2F)C2(C(=O)Nc3cc(Cl)ccc32)C12CCCCC2 (stereo not given) + CNC(C)C(=O)NC1CN(S(=O)(=O)c2cccc(S(=O)(=O)N3CCC4CCC(C(=O)NC(c5ccccc5)c5ccccc5)N4C(=O)C(NC(=O)C(C)NC)C3)c2)CCC2CCC(C(=O)NC(c3ccccc3)c3ccccc3)N2C1=O was run?
**A.** < 9.49 nM

**Q.** What about the IC50 (second compound 0.0316 µM) of the same compound?
**A.** < 9.49 nM

**Q.** And the IC50 (second compound 0.1 µM)?
**A.** < 9.49 nM

**Q.** And the IC50 (second compound 0.316 µM)?
**A.** < 9.49 nM

**Q.** And the IC50 (second compound 1 µM)?
**A.** < 9.49 nM

**Q.** What about the viability, T/C (second compound 0.01 µM, first compound 0.00949 µM) of the same compound?
**A.** 33%

**Q.** What about the viability, T/C (second compound 0.01 µM, first compound 0.03 µM) of the same compound?
**A.** 26.5%

**Q.** What about the viability, T/C (second compound 0.01 µM, first compound 0.0949 µM) of the same compound?
**A.** 19.7%

**Q.** What about the viability, T/C (second compound 0.01 µM, first compound 0.3 µM) of the same compound?
**A.** 11.7%

**Q.** And the viability, T/C (second compound 0.01 µM, first compound 0.949 µM)?
**A.** 10.8%

**Q.** And the viability, T/C (second compound 0.01 µM, first compound 3 µM)?
**A.** 7.5%

**Q.** What about the viability, T/C (second compound 0.0316 µM, first compound 0.00949 µM) of the same compound?
**A.** 28.5%

**Q.** And the viability, T/C (second compound 0.0316 µM, first compound 0.03 µM)?
**A.** 21.7%

**Q.** And the viability, T/C (second compound 0.0316 µM, first compound 0.0949 µM)?
**A.** 16.3%

**Q.** And the viability, T/C (second compound 0.0316 µM, first compound 0.3 µM)?
**A.** 11.6%

**Q.** What about the viability, T/C (second compound 0.0316 µM, first compound 0.949 µM) of the same compound?
**A.** 10.3%

**Q.** And the viability, T/C (second compound 0.0316 µM, first compound 3 µM)?
**A.** 7.98%

**Q.** What about the viability, T/C (second compound 0.1 µM, first compound 0.00949 µM) of the same compound?
**A.** 20.6%

**Q.** And the viability, T/C (second compound 0.1 µM, first compound 0.03 µM)?
**A.** 18.6%

**Q.** And the viability, T/C (second compound 0.1 µM, first compound 0.0949 µM)?
**A.** 14.6%

**Q.** What about the viability, T/C (second compound 0.1 µM, first compound 0.3 µM) of the same compound?
**A.** 13.5%

**Q.** What about the viability, T/C (second compound 0.1 µM, first compound 0.949 µM) of the same compound?
**A.** 10.5%

**Q.** And the viability, T/C (second compound 0.1 µM, first compound 3 µM)?
**A.** 8.21%

**Q.** What about the viability, T/C (second compound 0.316 µM, first compound 0.00949 µM) of the same compound?
**A.** 21%

**Q.** And the viability, T/C (second compound 0.316 µM, first compound 0.03 µM)?
**A.** 18.1%

**Q.** And the viability, T/C (second compound 0.316 µM, first compound 0.0949 µM)?
**A.** 17.7%

**Q.** What about the viability, T/C (second compound 0.316 µM, first compound 0.3 µM) of the same compound?
**A.** 14.1%

**Q.** And the viability, T/C (second compound 0.316 µM, first compound 0.949 µM)?
**A.** 9.49%

**Q.** And the viability, T/C (second compound 0.316 µM, first compound 3 µM)?
**A.** 10.4%

**Q.** What about the viability, T/C (second compound 1 µM, first compound 0.00949 µM) of the same compound?
**A.** 19.9%

**Q.** And the viability, T/C (second compound 1 µM, first compound 0.03 µM)?
**A.** 17.2%

**Q.** What about the viability, T/C (second compound 1 µM, first compound 0.0949 µM) of the same compound?
**A.** 15.9%

**Q.** And the viability, T/C (second compound 1 µM, first compound 0.3 µM)?
**A.** 13.7%

**Q.** And the viability, T/C (second compound 1 µM, first compound 0.949 µM)?
**A.** 11.8%

**Q.** What about the viability, T/C (second compound 1 µM, first compound 3 µM) of the same compound?
**A.** 9.28%

**Q.** Which results are given for Cn1ncnc1[C@H]1c2n[nH]c(=O)c3cc(F)cc(c23)N[C@@H]1c1ccc(F)cc1 + Cc1c(S(C)(=O)=O)c(-c2cc(F)cc(N3CCN(c4ccc(NS(=O)(=O)c5ccc(NC(CCN6CCC(C(=O)OCCCP(=O)(O)O)CC6)CSc6ccccc6)c(S(=O)(=O)C(F)(F)F)c5)cc4)CC3)c2)c(-c2ccc(Cl)cc2)n1C(C)C?
**A.** IC50 (second compound 0.1 µM): < 0.316 nM; IC50 (second compound 0.316 µM): < 0.316 nM; IC50 (second compound 1 µM): < 0.316 nM; IC50 (second compound 3.16 µM): < 0.316 nM; IC50 (second compound 10 µM): < 0.316 nM; viability, T/C (second compound 0.1 µM, first compound 0.000316 µM): 17.4%; viability, T/C (second compound 0.1 µM, first compound 0.001 µM): 14.9%; viability, T/C (second compound 0.1 µM, first compound 0.00316 µM): 17%; viability, T/C (second compound 0.1 µM, first compound 0.01 µM): 15.3%; viability, T/C [1]: 13.6%; viability, T/C [2]: 15.4%; viability, T/C (second compound 0.316 µM, first compound 0.000316 µM): 10.9%; viability, T/C (second compound 0.316 µM, first compound 0.001 µM): 11.7%; viability, T/C (second compound 0.316 µM, first compound 0.00316 µM): 10.6%; viability, T/C (second compound 0.316 µM, first compound 0.01 µM): 11.8%; viability, T/C [7]: 11.4%; viability, T/C [8]: 12.6%; viability, T/C (second compound 1 µM, first compound 0.000316 µM): 10.5%; viability, T/C (second compound 1 µM, first compound 0.001 µM): 9.96%; viability, T/C (second compound 1 µM, first compound 0.00316 µM): 7.96%; viability, T/C (second compound 1 µM, first compound 0.01 µM): 6.9%; viability, T/C [13]: 8.38%; viability, T/C [14]: 9.11%; viability, T/C (second compound 3.16 µM, first compound 0.000316 µM): 5.76%; viability, T/C (second compound 3.16 µM, first compound 0.001 µM): 7.46%; viability, T/C (second compound 3.16 µM, first compound 0.00316 µM): 5.55%; viability, T/C (second compound 3.16 µM, first compound 0.01 µM): 6.19%; viability, T/C [19]: 6.82%; viability, T/C [20]: 6.64%; viability, T/C (second compound 10 µM, first compound 0.000316 µM): 6.76%; viability, T/C (second compound 10 µM, first compound 0.001 µM): 6.12%; viability, T/C (second compound 10 µM, first compound 0.00316 µM): 6.36%; viability, T/C (second compound 10 µM, first compound 0.01 µM): 5.83%; viability, T/C [21]: 6.8%; viability, T/C [22]: 9.69%

**Q.** What does the source list for O=C(c1cc(Cc2n[nH]c(=O)c3ccccc23)ccc1F)N1CCN(C(=O)C2CC2)CC1 + Cc1c(S(C)(=O)=O)c(-c2cc(F)cc(N3CCN(c4ccc(NS(=O)(=O)c5ccc(NC(CCN6CCC(C(=O)OCCCP(=O)(O)O)CC6)CSc6ccccc6)c(S(=O)(=O)C(F)(F)F)c5)cc4)CC3)c2)c(-c2ccc(Cl)cc2)n1C(C)C?
**A.** IC50 (second compound 0.1 µM): < 31.6 nM; IC50 (second compound 0.316 µM): < 31.6 nM; IC50 (second compound 1 µM): < 31.6 nM; IC50 (second compound 3.16 µM): < 31.6 nM; IC50 (second compound 10 µM): < 31.6 nM; viability, T/C [1]: 14.8%; viability, T/C [2]: 14.2%; viability, T/C [3]: 14.6%; viability, T/C [4]: 17.6%; viability, T/C [5]: 18.5%; viability, T/C [6]: 13.5%; viability, T/C [7]: 9.83%; viability, T/C [8]: 9.85%; viability, T/C [9]: 10.5%; viability, T/C [10]: 10.7%; viability, T/C [11]: 16.4%; viability, T/C [12]: 9.72%; viability, T/C [13]: 8.79%; viability, T/C [14]: 10.4%; viability, T/C [15]: 9.85%; viability, T/C [16]: 8.8%; viability, T/C [17]: 11%; viability, T/C [18]: 8.8%; viability, T/C [19]: 6.37%; viability, T/C [20]: 7.47%; viability, T/C (second compound 3.16 µM, first compound 0.316 µM): 8.14%; viability, T/C (second compound 3.16 µM, first compound 1 µM): 5.82%; viability, T/C (second compound 3.16 µM, first compound 3.16 µM): 8%; viability, T/C (second compound 3.16 µM, first compound 10 µM): 7.02%; viability, T/C [21]: 4.38%; viability, T/C [22]: 4.61%; viability, T/C (second compound 10 µM, first compound 0.316 µM): 6.78%; viability, T/C (second compound 10 µM, first compound 1 µM): 4.36%; viability, T/C (second compound 10 µM, first compound 3.16 µM): 5.03%; viability, T/C (second compound 10 µM, first compound 10 µM): 5.76%
